Data as given in patent US9067943B2, “[1,2,3]triazolo[4,5-D]pyrimidine derivatives” (priority 2011, dated 2015).
Where two headings read alike, the source gives them in different places.

How the values were obtained:
[1] = biological target: T1, human CB1 receptors (Homo sapiens, UniProt P21554); assay: cAMP assay; type: cell-based
T1 construct: expressed in transfected cells; host or cells: CHO cells
Summary of the method: (§1)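 CHO cells expressing human CB1 or CB2 were preincubated 30 min at 30 °C in Krebs Ringer bicarbonate buffer with 1 mM IBMX, then exposed to compounds for 30 min at 30 °C. cAMP was measured by time-resolved FRET against a cAMP standard curve, and EC50 values were derived.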

[2] = biological target: T2, human CB2 receptors (Homo sapiens, UniProt P34972); assay: cAMP assay; type: cell-based
T2 construct: expressed in transfected cells; host or cells: CHO cells
Summary of the method: as §1

[3] = functional cAMP assay, CHO cells expressing human CB2, read-out: human CB2 EC50

T1 sequence (P21554 whole entry): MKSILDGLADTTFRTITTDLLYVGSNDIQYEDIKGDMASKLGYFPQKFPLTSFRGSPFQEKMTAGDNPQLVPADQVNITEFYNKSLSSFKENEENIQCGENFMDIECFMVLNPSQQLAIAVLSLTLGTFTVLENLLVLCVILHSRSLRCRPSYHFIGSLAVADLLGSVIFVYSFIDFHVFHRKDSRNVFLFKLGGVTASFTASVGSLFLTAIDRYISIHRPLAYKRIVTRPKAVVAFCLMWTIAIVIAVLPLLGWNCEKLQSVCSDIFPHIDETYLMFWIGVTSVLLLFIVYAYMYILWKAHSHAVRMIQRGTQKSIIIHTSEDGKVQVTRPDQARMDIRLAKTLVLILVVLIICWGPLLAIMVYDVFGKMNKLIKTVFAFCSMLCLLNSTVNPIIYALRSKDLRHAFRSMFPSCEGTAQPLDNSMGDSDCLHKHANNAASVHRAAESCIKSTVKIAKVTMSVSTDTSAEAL
T2 sequence (P34972 whole entry): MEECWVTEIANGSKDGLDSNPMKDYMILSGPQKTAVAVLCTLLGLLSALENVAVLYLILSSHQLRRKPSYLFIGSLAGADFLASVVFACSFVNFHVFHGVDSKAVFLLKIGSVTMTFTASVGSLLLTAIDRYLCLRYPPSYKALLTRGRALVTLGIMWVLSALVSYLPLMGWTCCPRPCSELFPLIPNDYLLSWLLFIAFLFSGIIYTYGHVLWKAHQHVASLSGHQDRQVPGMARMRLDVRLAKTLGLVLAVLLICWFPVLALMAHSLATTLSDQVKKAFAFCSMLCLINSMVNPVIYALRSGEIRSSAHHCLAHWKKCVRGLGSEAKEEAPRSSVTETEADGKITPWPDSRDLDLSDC

Cn1nncc1Cn1nc2nc(C(C)(C)C)nc(N3CC[C@H](O)C3)c2n1 [Example 90, (S)-1-[5-tert-Butyl-2-(3-methyl-3H-[1,2,3]triazol-4-ylmethyl)-2H-[1,2,3]triazolo[4,5-d]pyrimidin-7-yl]-pyrrolidin-3-ol]
EC50 [1]: > 10000 nM
EC50 [2]: 40.7 nM

Cc1cc(Cn2nc3nc(C(C)(C)C)nc(N4CC[C@H](O)C4)c3n2)n(C)n1 [Example 91, (S)-1-[5-tert-Butyl-2-(2,5-dimethyl-2H-pyrazol-3-ylmethyl)-2H-[1,2,3]triazolo[4,5-d]pyrimidin-7-yl]-pyrrolidin-3-ol]
EC50 [1]: > 10000 nM
EC50 [2, 3]: 124 nM

CC(C)(C)c1nc(N2CCC(F)(F)C2)c2nn(Cc3nnnn3C3CC3)nc2n1 [Example 92, 5-tert-Butyl-2-(1-cyclopropyl-1H-tetrazol-5-ylmethyl)-7-(3,3-difluoro-pyrrolidin-1-yl)-2H-[1,2,3]triazolo[4,5-d]pyrimidine]
EC50 [1]: 1580 nM
EC50 [2]: 5 nM

CC(C)(C)c1nc(N2CC[C@H](O)C2)c2nn(Cc3cccnc3Nc3ccc([N+](=O)[O-])c4nonc34)nc2n1 [Example 93, (S)-1-{5-tert-Butyl-2-[2-(7-nitro-benzo[1,2,5]oxadiazol-4-ylamino)-pyridin-3-ylmethyl]-2H-[1,2,3]triazolo[4,5-d]pyrimidin-7-yl}-pyrrolidin-3-ol]
EC50 [1]: > 10000 nM
EC50 [2, 3]: 270 nM

CC(C)(C)c1nc(N2CC[C@H](O)C2)c2nn(Cc3nnnn3C3CC3)nc2n1 [Example 94, (S)-1-[5-tert-Butyl-2-(1-cyclopropyl-1H-tetrazol-5-ylmethyl)-2H-[1,2,3]triazolo[4,5-d]pyrimidin-7-yl]-pyrrolidin-3-ol]
EC50 [1]: > 10000 nM
EC50 [2, 3]: 251 nM

Cc1nc(Cn2nc3nc(C(C)(C)C)nc(N4CC[C@H](O)C4)c3n2)n(C)n1 [Example 95, (S)-1-[5-tert-Butyl-2-(2,5-dimethyl-2H-[1,2,4]triazol-3-ylmethyl)-2H-[1,2,3]triazolo[4,5-d]pyrimidin-7-yl]-pyrrolidin-3-ol]
EC50 [1]: > 10000 nM
EC50 [2, 3]: 257 nM

Cc1nc(Cn2nc3nc(C(C)(C)C)nc(N4CCC(F)(F)C4)c3n2)n(C)n1 [Example 96, 5-tert-Butyl-7-(3,3-difluoro-pyrrolidin-1-yl)-2-(2,5-dimethyl-2H-[1,2,4]triazol-3-ylmethyl)-2H-[1,2,3]triazolo[4,5-d]pyrimidine]
EC50 [1]: > 10000 nM
EC50 [2]: 22.6 nM

CC(C)(C)c1nc(N2CC[C@H](O)[C@@H]2CO)c2nn(Cc3nnnn3C3CC3)nc2n1 [Example 97, (2S,3S)-1-[5-tert-Butyl-2-(1-cyclopropyl-1H-tetrazol-5-ylmethyl)-2H-[1,2,3]triazolo[4,5-d]pyrimidin-7-yl]-2-hydroxymethyl-pyrrolidin-3-ol]
EC50 [1]: > 10000 nM
EC50 [2, 3]: 144 nM

Cc1nonc1Cn1nc2nc(C(C)(C)C)nc(N3CC[C@H](O)[C@@H]3CO)c2n1 [Example 98, (2S,3S)-1-[5-tert-Butyl-2-(4-methyl-furazan-3-ylmethyl)-2H-[1,2,3]triazolo[4,5-d]pyrimidin-7-yl]-2-hydroxymethyl-pyrrolidin-3-ol]
EC50 [1]: > 10000 nM
EC50 [2, 3]: 211 nM

Cc1nonc1Cn1nc2nc(C(C)(C)C)nc(N3CC(F)(F)C(F)(F)C3)c2n1 [Example 99, 5-tert-Butyl-2-(4-methyl-furazan-3-ylmethyl)-7-(3,3,4,4-tetrafluoro-pyrrolidin-1-yl)-2H-[1,2,3]triazolo[4,5-d]pyrimidine]
EC50 [1]: > 10000 nM
EC50 [2]: 0.9 nM

Cc1noc(Cn2nc3nc(C(C)(C)C)nc(N4CC(F)(F)C(F)(F)C4)c3n2)n1 [Example 100, 5-tert-Butyl-2-(3-methyl-[1,2,4]oxadiazol-5-ylmethyl)-7-(3,3,4,4-tetrafluoro-pyrrolidin-1-yl)-2H-[1,2,3]triazolo[4,5-d]pyrimidine]
EC50 [1]: > 10000 nM
EC50 [2]: 4.6 nM

Cc1nnc(Cn2nc3nc(C(C)(C)C)nc(N4CC(F)(F)C(F)(F)C4)c3n2)o1 [Example 101, 5-tert-Butyl-2-(5-methyl-[1,3,4]oxadiazol-2-ylmethyl)-7-(3,3,4,4-tetrafluoro-pyrrolidin-1-yl)-2H-[1,2,3]triazolo[4,5-d]pyrimidine]
EC50 [1]: > 10000 nM
EC50 [2]: 15.7 nM

Cn1nnnc1Cn1nc2nc(C(C)(C)C)nc(N3CC(F)(F)C(F)(F)C3)c2n1 [Example 102, 5-tert-Butyl-2-(1-methyl-1H-tetrazol-5-ylmethyl)-7-(3,3,4,4-tetrafluoro-pyrrolidin-1-yl)-2H-[1,2,3]triazolo[4,5-d]pyrimidine]
EC50 [1]: > 10000 nM
EC50 [2]: 6.3 nM

Cc1nnc(Cn2nc3nc(C(C)(C)C)nc(N4CC(F)(F)C(F)(F)C4)c3n2)n1C [Example 103, 5-tert-Butyl-2-(4,5-dimethyl-4H-[1,2,4]triazol-3-ylmethyl)-7-(3,3,4,4-tetrafluoro-pyrrolidin-1-yl)-2H-[1,2,3]triazolo[4,5-d]pyrimidine]
EC50 [1]: > 10000 nM
EC50 [2]: 20.9 nM

Cn1nncc1Cn1nc2nc(C(C)(C)C)nc(N3CC(F)(F)C(F)(F)C3)c2n1 [Example 104, 5-tert-Butyl-2-(3-methyl-3H-[1,2,3]triazol-4-ylmethyl)-7-(3,3,4,4-tetrafluoro-pyrrolidin-1-yl)-2H-[1,2,3]triazolo[4,5-d]pyrimidine]
EC50 [1]: > 10000 nM
EC50 [2]: 10.1 nM

Cc1nnc(Cn2nc3nc(C(C)(C)C)nc(N4CC5(COC5)C4)c3n2)n1C [Example 106, 5-tert-Butyl-2-(4,5-dimethyl-4H-[1,2,4]triazol-3-ylmethyl)-7-(2-oxa-6-aza-spiro[3.3]hept-6-yl)-2H-[1,2,3]triazolo[4,5-d]pyrimidine]
EC50 [1]: > 10000 nM
EC50 [2]: 62.7 nM

CC(C)(C)c1nc(N2CC3(COC3)C2)c2nn(Cc3ccccc3S(C)(=O)=O)nc2n1 [Example 107, 5-tert-Butyl-2-(2-methanesulfonyl-benzyl)-7-(2-oxa-6-aza-spiro[3.3]hept-6-yl)-2H-[1,2,3]triazolo[4,5-d]pyrimidine]
EC50 [1]: > 10000 nM
EC50 [2]: 8.4 nM

CC(C)(C)c1nc(N2CC3(COC3)C2)c2nn(Cc3ncccc3Cl)nc2n1 [Example 108, 5-tert-Butyl-2-(3-chloro-pyridin-2-ylmethyl)-7-(2-oxa-6-aza-spiro[3.3]hept-6-yl)-2H-[1,2,3]triazolo[4,5-d]pyrimidine]
EC50 [1]: 362 nM
EC50 [2]: 5.2 nM

O[C@H]1CCN(c2nc(OCC(F)(F)F)nc3nn(Cc4ccccc4Cl)nc23)C1 [Example 109, (S)-1-[2-(2-Chloro-benzyl)-5-(2,2,2-trifluoro-ethoxy)-2H-[1,2,3]triazolo[4,5-d]pyrimidin-7-yl]-pyrrolidin-3-ol]
EC50 [1]: > 10000 nM
EC50 [2, 3]: 107 nM

O[C@H]1CCN(c2nc(OCC(F)(F)F)nc3nn(Cc4ccccc4C(F)(F)F)nc23)C1 [Example 110, (S)-1-[5-(2,2,2-Trifluoro-ethoxy)-2-(2-trifluoromethyl-benzyl)-2H-[1,2,3]triazolo[4,5-d]pyrimidin-7-yl]-pyrrolidin-3-ol]
EC50 [1]: > 10000 nM
EC50 [2]: 60 nM

CC(C)Oc1nc(N2CC[C@H](O)C2)c2nn(Cc3ccccc3Cl)nc2n1 [Example 111, (S)-1-[2-(2-Chloro-benzyl)-5-isopropoxy-2H-[1,2,3]triazolo[4,5-d]pyrimidin-7-yl]-pyrrolidin-3-ol]
EC50 [1]: > 10000 nM
EC50 [2, 3]: 265 nM

Cn1nnnc1Cn1nc2nc(OCC(C)(C)C)nc(N3CCC(F)(F)C3)c2n1 [Example 112, 7-(3,3-Difluoro-pyrrolidin-1-yl)-5-(2,2-dimethyl-propoxy)-2-(1-methyl-1H-tetrazol-5-ylmethyl)-2H-[1,2,3]triazolo[4,5-d]pyrimidine]
EC50 [1]: > 10000 nM
EC50 [2]: 30.9 nM

Cn1nnnc1Cn1nc2nc(C(C)(C)C)nc(N3CC[C@@H](O)C3)c2n1 [Example 113, (R)-1-[5-tert-Butyl-2-(1-methyl-1H-tetrazol-5-ylmethyl)-2H-[1,2,3]triazolo[4,5-d]pyrimidin-7-yl]-pyrrolidin-3-ol]
EC50 [1]: > 10000 nM
EC50 [2]: 1660 nM

Cn1nnnc1Cn1nc2nc(C(C)(C)C)nc(N3CCC(O)C3)c2n1 (centres unmarked) [Example 114, 1-[5-tert-Butyl-2-(1-methyl-1H-tetrazol-5-ylmethyl)-2H-[1,2,3]triazolo[4,5-d]pyrimidin-7-yl]-pyrrolidin-3-ol]
EC50 [1]: > 10000 nM
EC50 [2]: 164 nM

C[C@H](Oc1nc(N2CCC(F)(F)C2)c2nn(Cc3ccccc3C(F)(F)F)nc2n1)C(F)(F)F [Example 115, 7-(3,3-Difluoro-pyrrolidin-1-yl)-2-(2-trifluoromethyl-benzyl)-5-((S)-2,2,2-trifluoro-1-methyl-ethoxy)-2H-[1,2,3]triazolo[4,5-d]pyrimidine]
EC50 [1]: > 10000 nM
EC50 [2]: 31.2 nM

C[C@H](Oc1nc(N2CCC(F)(F)C2)c2nn(Cc3ccccc3S(C)(=O)=O)nc2n1)C(F)(F)F [Example 116, 7-(3,3-Difluoro-pyrrolidin-1-yl)-2-(2-methanesulfonyl-benzyl)-5-((S)-2,2,2-trifluoro-1-methyl-ethoxy)-2H-[1,2,3]triazolo[4,5-d]pyrimidine]
EC50 [1]: > 10000 nM
EC50 [2]: 23.1 nM

C[C@H](Oc1nc(N2CCC(F)(F)C2)c2nn(Cc3ncccc3Cl)nc2n1)C(F)(F)F [Example 117, 2-(3-Chloro-pyridin-2-ylmethyl)-7-(3,3-difluoro-pyrrolidin-1-yl)-5-((S)-2,2,2-trifluoro-1-methyl-ethoxy)-2H-[1,2,3]triazolo[4,5-d]pyrimidine]
EC50 [1]: > 10000 nM
EC50 [2]: 21.2 nM

Cc1nnc(Cn2nc3nc(O[C@@H](C)C(F)(F)F)nc(N4CCC(F)(F)C4)c3n2)o1 [Example 118, 7-(3,3-Difluoro-pyrrolidin-1-yl)-2-(5-methyl-[1,3,4]oxadiazol-2-ylmethyl)-5-((S)-2,2,2-trifluoro-1-methyl-ethoxy)-2H-[1,2,3]triazolo[4,5-d]pyrimidine]
EC50 [1]: > 10000 nM
EC50 [2, 3]: 441 nM
